For one test, the system named is Phakopsora pachyrhizi. Description: Curative control of soybean rust on soy beans caused by Phakopsora pachyrhizi (glasshouse). The format is in vivo. The following applies: comparative trial (Use example 7), untreated 100. The protocol:
The active compounds were formulated separately or together as a stock solution comprising 25 mg of active compound which was made up to 10 ml using a mixture of acetone and/or dimethyl sulfoxide (DMSO) and the emulsifier Wettol EM 31 (wetting agent having emulsifying and dispersing action based on ethoxylated alkylphenols) in a volume ratio of solvent/emulsifier of 99 to 1. This solution was then made up to 100 ml using water. This stock solution was diluted with the solvent/emulsifier/water mixture described to the active compound concentration given below.
Leaves of pot-grown soybean seedlings were inoculated with spores of Phakopsora pachyrhizi. To ensure the success of the artificial inoculation, the plants were transferred to a humid chamber with a relative humidity of about 95% and 23 to 27° C. for 24 h. The next day the plants were sprayed to run-off with an aqueous suspension, containing the concentration of active ingredient or their mixture as described below. The plants were allowed to air-dry. Then the trial plants were cultivated for 14 days in a greenhouse chamber at 23-27° C. and a relative humidity between 60 and 80%. The extent of fungal attack on the leaves was visually assessed as % diseased leaf area.
The spray solutions were prepared as described for “Examples of the action against harmful fungi” (II. B).
The trial was conducted as described for Use example 3.

A further test has as its system Pyricularia oryzae. Format: cell-based. The following applies: 10 days after inoculation.

On to `COc1cc(CNS(=O)(=O)c2ccc(-c3ccc(C(F)(F)F)cc3C(F)(F)F)cc2)ccn1`, for which, in the test on Phakopsora pachyrhizi, the “Disease level (%) at 250 ppm” value turned out to be 100%.
In the case of `COc1cc(CNS(=O)(=O)c2ccc(-c3ccc(C(F)(F)F)cc3C(F)(F)F)cc2)sn1` [I-2], the “Disease level (%) at 250 ppm” value with Phakopsora pachyrhizi stood at 5%.
In the case of `COc1cc(CNS(=O)(=O)c2ccc(-c3ccc(Cl)cc3Cl)cc2)ccn1` [Table C) I-76 according to WO06/097489], the “Growth (%) at 2 ppm” value in the test on Pyricularia oryzae was determined as 68%.
`Cc1cnccc1CNS(=O)(=O)c1ccc(-c2ccc(Cl)cc2Cl)cc1`: the “Growth (%) at 31 ppm” value in the test with Pyricularia oryzae is 30%.
In the case of `COc1cc(CNS(=O)(=O)c2ccc(-c3ccc(Cl)cc3Cl)cc2)sn1` [I-3], the “Growth (%) at 2 ppm” value with Pyricularia oryzae was 46%.
With `Cn1nccc1CNS(=O)(=O)c1ccc(-c2ccc(Cl)cc2Cl)cc1` [I-46], the “Growth (%) at 31 ppm” value in the test on Pyricularia oryzae is on record as 16%.

Values taken from patent publication US20110015065A1 (priority 2008, published 2011).
